Experiments:
[1] = Apparent pKa of LNP formulations by TNS fluorescence assay; type: physicochemical; conditions: LNP cationic lipid/DSPC/cholesterol/DMG-PEG 50/10/38.5/1.5 mol %, table of Example 15
Experimental: As reported in literature, the apparent pKa of LNP formulations correlates with the delivery efficiency of LNPs for nucleic acids in vivo. The apparent pKa of each formulation was determined using an assay based on fluorescence of 2-(p-toluidino)-6-napthalene sulfonic acid (TNS). LNP formulations comprising of cationic lipid/DSPC/cholesterol/DMG-PEG (50/10/38.5/1.5 mol %) in PBS were prepared as described above. TNS was prepared as a 300 uM stock solution in distilled water. LNP formulations were diluted to 0.1 mg/ml total lipid in 3 mL of buffered solutions containing 50 mM sodium citrate, 50 mM sodium phosphate, 50 mM sodium borate, and 30 mM sodium chloride where the pH ranged from 3 to 9. An aliquot of the TNS solution was added to give a final concentration of 0.1 mg/ml and following vortex mixing fluorescence intensity was measured at room temperature in a Molecular Devices Spectramax iD3 spectrometer using excitation and mission wavelengths of 325 nm and 435 nm. A sigmoidal best fit analysis was applied to the fluorescence data and the pKa value was measured as the pH giving rise to half-maximal fluorescent intensity.

female Balb/c mice = test: Animal study: LNPs encapsulating luciferase mRNA, tail vein injection, organ bioluminescence imaging (IVIS Spectrum CT); type: in vivo; conditions: luciferase mRNA LNP, 0.25 mg/kg tail vein; for luciferase expression in bone marrow (in words): 6 h; for bone marrow* Avg Radiance: bone marrow at 6 h; for brain* Avg Radiance: dissected brain at 6 h; for heart* Avg Radiance: dissected heart at 6 h; for kidney* Avg Radiance: dissected kidney at 6 h; for liver* Avg Radiance: dissected liver at 6 h; for lung* Avg Radiance: dissected lung at 6 h; for spleen* Avg Radiance: dissected spleen at 6 h
Experimental: Lipid nanoparticles comprising certain compounds provided herein encapsulating luciferase encoding (luciferase) mRNA were systemically administered to 6-8 week old female Balb/c mice (Charles River Lab, ZheJiang) at 0.25 mg/kg dose by tail vein injection, and mice blood were sampled at specific time points (e.g., 6 hours) post administration. Optical imaging was performed using the IVIS Spectrum CT device (PerkinElmer Inc., Paris, France). The luminescence level was evaluated by an ROI applied to the injection site zone (Living Image software, PerkinElmer Inc., Paris, France).
Radiance of heart, liver, spleen, lung, kidney, brain and bone marrow were taken at 6 h. Dissected organs were placed on a black sheet and imaged with IVIS Spectrum CT (PerkinElmer, Hopkinton, MA). To quantify bioluminescence emission signal, identical regions of interest (ROI) were positioned to encircle each organ region, the imaging signal was quantitated as average radiance (photons/s/cm2/steradian).

[2] = Lipid nanoparticle size and polydispersity by dynamic light scattering (Malvern Zetasizer Nano ZS); type: physicochemical; conditions: LNP: cationic lipid/DSPC/cholesterol/PEG-lipid 50:10:38.5:1.5, mRNA; table of Example 15
Experimental: (§1) Briefly, a cationic lipid provided herein, DSPC, cholesterol, and PEG-lipid were solubilized in ethanol at a molar ratio of 50:10:38.5:1.5, and mRNA were diluted in 10 to 50 mM citrate buffer, pH=4. The LNPs were prepared at a total lipid to mRNA weight ratio of approximately 10:1 to 30:1 by mixing the ethanolic lipid solution with the aqueous mRNA solution at a volume ratio of 1:3 using a microfluidic apparatus, total flow rate ranging from 9-30 mL/min. Ethanol were thereby removed and replaced by DPBS using dialysis. Finally, the lipid nanoparticles were filtered through a 0.2 μm sterile filter.
(§2) Lipid nanoparticle size were determined by dynamic light scattering using a Malvern Zetasizer Nano ZS (Malvern UK) using a 173° backscatter detection mode. The encapsulation efficiency of lipid nanoparticles were determined using a Quant-it Ribogreen RNA quantification assay kit (Thermo Fisher Scientific, UK) according to the manufacturer's instructions.

[3] = Encapsulation efficiency of lipid nanoparticles (Quant-it Ribogreen RNA quantification assay); type: physicochemical; conditions: LNP: cationic lipid/DSPC/cholesterol/PEG-lipid 50:10:38.5:1.5, mRNA; table of Example 15
Experimental: as §1, §2

Compound	Apparant Pka [1]	polydispersity [2]	size (nm) [2] [nm]	Encapsulation Efficiency [3] [%]	luciferase expression in bone marrow (in words) (female Balb/c mice)	bone marrow* Avg Radiance (female Balb/c mice)	brain* Avg Radiance (female Balb/c mice)	heart* Avg Radiance (female Balb/c mice)	kidney* Avg Radiance (female Balb/c mice)	liver* Avg Radiance (female Balb/c mice)	lung* Avg Radiance (female Balb/c mice)	spleen* Avg Radiance (female Balb/c mice)
CCCCC/C=C\C/C=C\CCCCCCCC(=O)OCC(COC(=O)CCCC(COC(=O)CCCCCCC)COC(=O)CCCCCCC)COC(=O)OCCCN(CCOCCO)C1CCC1 (centres unmarked) [Compound 127]	6.398	0.037	87.99	85.39	mild expression	0.95 E+04 p/s/cm^2/sr	3.91 E+04 p/s/cm^2/sr	4.33 E+04 p/s/cm^2/sr	10.77 E+04 p/s/cm^2/sr	13.01 E+06 p/s/cm^2/sr	9.38 E+04 p/s/cm^2/sr	4.76 E+06 p/s/cm^2/sr
CCCCC/C=C\C/C=C\CCCCCCCC(=O)OCC(COC(=O)CCC(OCCCCCCCC)OCCCCCCCC)COC(=O)OCCCN(CCO)C1CCC1 (centres unmarked) [Compound 115]	6.499	0.033	71.59	91.21	–	−0.66 E+04 p/s/cm^2/sr	14.59 E+04 p/s/cm^2/sr	13.74 E+04 p/s/cm^2/sr	27.83 E+04 p/s/cm^2/sr	44.21 E+06 p/s/cm^2/sr	7.01 E+04 p/s/cm^2/sr	1.06 E+06 p/s/cm^2/sr
CCCCC/C=C\C/C=C\CCCCCCCC(=O)OCC(COC(=O)CCCCN(CCO)C1CCC1)COC(=O)CCC(OCCCCCCCC)OCCCCCCCC (centres unmarked) [Compound 116]	6.881	0.049	78.48	92.40	–	−0.16 E+04 p/s/cm^2/sr	13.52 E+04 p/s/cm^2/sr	12.65 E+04 p/s/cm^2/sr	28.62 E+04 p/s/cm^2/sr	40.56 E+06 p/s/cm^2/sr	17.29 E+04 p/s/cm^2/sr	1.38 E+06 p/s/cm^2/sr
CCCCC/C=C\C/C=C\CCCCCCCC(=O)OCC(COC(=O)CCCCN(CCOCCO)C1CCC1)COC(=O)CCCC(COC(=O)CCCCCCC)COC(=O)CCCCCCC (centres unmarked) [Compound 125]	6.863	0.025	83.81	87.71	–	−0.94 E+04 p/s/cm^2/sr	4.61 E+04 p/s/cm^2/sr	5.27 E+04 p/s/cm^2/sr	8.4 E+04 p/s/cm^2/sr	16.61 E+06 p/s/cm^2/sr	7.67 E+04 p/s/cm^2/sr	2.24 E+06 p/s/cm^2/sr
CCCCC/C=C\C/C=C\CCCCCCCC(=O)OCC(COC(=O)CCC(OCCCCCCCC)OCCCCCCCC)COC(=O)OCCCN(CCO)C1CCCCC1 (centres unmarked) [Compound 126]	6.154	0.039	71.38	91.87	–	−1.44 E+04 p/s/cm^2/sr	10.48 E+04 p/s/cm^2/sr	23.71 E+04 p/s/cm^2/sr	29.29 E+04 p/s/cm^2/sr	54.3 E+06 p/s/cm^2/sr	15.58 E+04 p/s/cm^2/sr	0.73 E+06 p/s/cm^2/sr
CCCCC/C=C\C/C=C\CCCCCCCC(=O)OCC(COC(=O)CCCCCCC/C=C\C/C=C\CCCCC)COC(=O)CCCCCCCN(CCO)C1CCC1 [Compound 124]	7.1	0.078	90.89	90.85	mild expression	2.2 E+04 p/s/cm^2/sr	16.34 E+04 p/s/cm^2/sr	32.73 E+04 p/s/cm^2/sr	34.36 E+04 p/s/cm^2/sr	47.09 E+06 p/s/cm^2/sr	16.04 E+04 p/s/cm^2/sr	11.21 E+06 p/s/cm^2/sr

The next lines start with results.

Apparant Pka [1]	polydispersity [2]	size (nm) [2] [nm]	Encapsulation Efficiency [3] [%]	Compound	luciferase expression in bone marrow (in words) (female Balb/c mice)	bone marrow* Avg Radiance (female Balb/c mice)	brain* Avg Radiance (female Balb/c mice)	heart* Avg Radiance (female Balb/c mice)	kidney* Avg Radiance (female Balb/c mice)	liver* Avg Radiance (female Balb/c mice)	lung* Avg Radiance (female Balb/c mice)	spleen* Avg Radiance (female Balb/c mice)
7.194	0.206	89.95	87.34	CCCCCCCCCCCCCCCCCC(=O)OCC(COC(=O)CCCC(COC(=O)CCCCCCC)COC(=O)CCCCCCC)OC(=O)CCCCN(CCO)C1CCC1 (centres unmarked) [Compound 114]	mild expression	0.2 E+04 p/s/cm^2/sr	6.01 E+04 p/s/cm^2/sr	5.49 E+04 p/s/cm^2/sr	7.63 E+04 p/s/cm^2/sr	21.27 E+06 p/s/cm^2/sr	6.22 E+04 p/s/cm^2/sr	2.7 E+06 p/s/cm^2/sr
6.477	0.033	138.5	87.05	CCCCC/C=C\C/C=C\CCCCCCCC(=O)OCC(COC(=O)CCCCN(CCCCCCCO)C1CCC1)COC(=O)CCCC(COC(=O)CCCCCCC)COC(=O)CCCCCCC (centres unmarked) [Compound 129]	mild expression	2.12 E+04 p/s/cm^2/sr	12.49 E+04 p/s/cm^2/sr	13.05 E+04 p/s/cm^2/sr	17.53 E+04 p/s/cm^2/sr	30.05 E+06 p/s/cm^2/sr	11 E+04 p/s/cm^2/sr	6.57 E+06 p/s/cm^2/sr
6.864	0.043	132	87.30	CCCCCCCC(=O)OCC(CCCC(=O)OCC(COC(=O)CCCCCCC)COC(=O)CCCCCCN(CCO)C1CCC1)COC(=O)CCCCCCC (centres unmarked) [Compound 78]	mild expression	0.51 E+04 p/s/cm^2/sr	3.25 E+04 p/s/cm^2/sr	3.65 E+04 p/s/cm^2/sr	7.88 E+04 p/s/cm^2/sr	11.41 E+06 p/s/cm^2/sr	3.83 E+04 p/s/cm^2/sr	2.07 E+06 p/s/cm^2/sr

— patent publication US20240252650A1, “LIPID COMPOUNDS AND LIPID NANOPARTICLE COMPOSITIONS” (SUZHOU ABOGEN BIOSCIENCES CO., LTD., priority 2021, published 2024)
